Data: US20150212068A1, “Cholyl-L-Lysyl-Fluorescein Assay” (Novassay SA, priority 2012, published 2015)
Entries after “also recorded” stand apart in the source; their conditions may differ.

Experiments:
serum proteins = test: Recovery of spiked CLF from individual human serum samples, classical and labelled-antibody competitive immunoassays; format: in vitro ADME; conditions: inferred from low recovery of CLF spiked into serum
Protocol: Streptavidin-coated microtitre plate Biotinylated anti-fluorescein antibody, “BJ/C” (NovAssay, using HyTest mouse monoclonal anti-fluorescein, cat code 5F3 2A3 (conjugate ref. DV038/182-1) or AbD Serotec sheep polyclonal anti-fluorescein, cat code 640001 (ref. DV038/182-2) is bound to the plate CLF from the sample competes with CLF-horseradish peroxidase, “CJ/C” (CLF-HRP; NovAssay, DV047/14) for the biotinylated anti-fluorescein antibody Bound CLF-HRP is measured colorimetrically using tetramethylbenzidine (TMB) substrate.
• Streptavidin-coated microtitre plate • Biotin-fluorescein (Sigma B9431) is bound to the plate • CLF from the sample competes with bound biotin-fluorescein for an anti-fluorescein-HRP conjugate (NovAssay, using HyTest mouse monoclonal anti-fluorescein, cat code 5F3 2A3 (conjugate ref. DV047/17-3) • Bound anti-fluorescein-HRP is measured colorimetrically using tetramethylbenzidine (TMB) substrate. […]
Given the success of achieving workable standard curves in both formats, 100 ng/ml of CLF was spiked into a number of individual human serum samples, and the percentage CLF recovery calculated (e.g. 50 ng/ml=50%). […]

[1] = Stability of CLF in whole human blood at 37° C. (Test 1), HPLC-MS/MS; format: in vitro ADME; conditions: for CLF concentration: whole human blood spiked 100 ng/ml, mean ± SEM (n = 2); for CLF remaining: whole human blood, vs To
Protocol: Fifty microliters (50 μl) of the working solution of CLF were added to 5 ml of human EDTA blood. The final concentration of CLF in blood was of 100 ng/ml. One aliquot of 1 ml of blood was taken (To) and the remaining solution was incubated at 37° C. in a water bath for 30 min, 120 min and 24 h. At the end of each incubation time, 1 ml of blood was taken and plasma was prepared by centrifugation of samples at 2000 g (4° C.) for 10 min. Two equal aliquots of 200 μl were prepared and stored at −70° C. until further analysis. […] Thus, a stock solution of IS at 100 μg/ml in acetonitrile was 50-fold diluted in acetonitrile in order to obtain a final concentration of 2 μg/ml. Then, 200 μl of this solution were added to each plasma sample in order to precipitate the proteins. Samples were vortexed/mixed and centrifuged 5 min at 20,000 g (4° C.). After centrifugation, the clear supernatant (around 250 μl) was transferred into 1.2 ml HPLC glass vials and sealed. Samples were placed into the refrigerated autosampler and 20 μl were injected into the HPLC-MS/MS system. Test samples were injected twice. […] The injected volume of sample was 20 μl and the “full loop” mode was applied. The temperature of the analytical column was kept at 30° C. CLF and its IS were separated on an Acclaim 120 C18 column (5 μm, 2.1×100 mm, Dionex) by elution with a linear gradient of acetonitrile in water as described in Table 6. An ion trap mass spectrometer equipped with an ESI interface was operated in the positive ionization mode. For each compound, the most abundant ion formed in MS was selected for MS/MS fragmentations. In order to increase the sensitivity and the specificity of the method, the MRM mode was selected. The most specific daughter ions formed in MS/MS were used for quantification.

[2] = Stability of CLF-spiked serum pools stored 48 hrs at −20° C., 4° C. and 37° C., CLF ELISA; format: in vitro ADME, human; conditions: for % difference (4° C. from −20° C.) / % difference (37° C. from −20° C.) / observed 4° C. / observed 37° C. / observed −20° C.: serum pool; for observed 4° C.: 48 hrs at 4° C.; for observed 37° C.: 48 hrs at 37° C.; for observed −20° C.: 48 hrs at −20° C.
Protocol: These conditions were used for all assays described in Phase 2a (above) and Phase 2b (below). See Appendix B and C for buffer and conjugate formulations respectively: • Add 25 μl/well of sample or standard (0-1000 ng/ml CLF in Buffer #24) to the wells of a streptavidin-coated microtitre plate (NovAssay, F2SAC). • Add 100 μl/well of fluorescein-biotin (Sigma B9431) at 20 ng/ml in Buffer #24+0.2% w/v ANS (Sigma 10417). • Add 100 μl/well of anti-fluorescein HRP (NovAssay, DV047/17-3) at 100 ng/ml in Buffer #24. • Incubate the plate for 30 minutes at room temperature. • Wash the plate 3 times with 800 μl/well Buffer #29 and tap the plate dry. • Add 100 μl/well of SureBlue Reserve TMB Substrate (KPL) and incubate the plate for 10 minutes at room temperature. • Stop the substrate reaction by adding 100 μl/well of 1M HCl and read the absorbance at 450 nm wavelength (ThermoFisher Scientific, Multiskan FC).
The stability study (−20° C., 4° C. and 37° C.) involved preparation of 3 serum pools spiked with 31.25 ng/ml, 125 ng/ml and 250 ng/ml CLF (aliquots of which were then stored at the 3 temperatures). Storage time was 48 hrs.

Compound: CC(CCC(=O)NC(CCCCNC(=S)Nc1ccc(-c2c3ccc(=O)cc-3oc3cc(O)ccc23)c(C(=O)O)c1)C(=O)O)C1CCC2C3C(O)CC4CC(O)CCC4(C)C3CC(O)C12C [CLF, Cholyl-L-Lysyl-Fluorescein]
- binding of CLF to serum proteins (serum proteins): binds to serum proteins; also recorded: significant protein binding
- CLF stability in whole human blood ([1]; 37° C., 24 hours, 100 ng/ml): stable during 24 h; also recorded: stable over 24 hours
- plasmatic concentrations measured ([1]; whole blood spiked with 100 ng/ml, 37° C., 0-24 h): 165.1 to 180.3 ng/mL
- repartition of CLF in blood ([1]; whole blood spiked with CLF, plasma prepared by centrifugation): mainly distributed in the plasmatic fraction; also recorded: mainly distributed in the plasma fraction
- percentage of compound remaining (by comparing with content at To), lowest over incubation ([1]; whole blood, 37° C., up to 24 h): at least 104.1%
- CLF concentration ([1]; 37° C., 0.0 hours, plasmatic concentration): 165.1 ± 2.6 ng/mL
- CLF concentration ([1]; 37° C., 0.5 hours): 171.9 ± 6.7 ng/mL
- CLF concentration ([1]; 37° C., 2.0 hours): 180.3 ± 7.4 ng/mL
- CLF concentration ([1]; 37° C., 24.0 hours): 173.8 ± 1.7 ng/mL
- CLF remaining ([1]; 37° C., 0.0 hours): 100.0%
- CLF remaining ([1]; 37° C., 0.5 hours): 104.1%
- CLF remaining ([1]; 37° C., 2.0 hours): 109.2%
- CLF remaining ([1]; 37° C., 24.0 hours): 105.3%
- time spiked samples can be stored ([2]; at 4 C., should avoid higher temperatures e.g. 37 C.): 48 hrs at 4 C. but should avoid higher
- % difference (4° C. from −20° C.) ([2]; expected 31.25 ng/ml, 48 hrs): −8%
- % difference (37° C. from −20° C.) ([2]; expected 31.25 ng/ml, 48 hrs): −45%
- observed 4° C. ([2]; expected 31.25 ng/ml): 34 ng/mL
- observed 37° C. ([2]; expected 31.25 ng/ml): 20 ng/mL
- observed −20° C. ([2]; expected 31.25 ng/ml): 37 ng/mL
- % difference (4° C. from −20° C.) ([2]; expected 125 ng/ml, 48 hrs): −2%
- % difference (37° C. from −20° C.) ([2]; expected 125 ng/ml, 48 hrs): −20%
- observed 4° C. ([2]; expected 125 ng/ml): 107 ng/mL
- observed 37° C. ([2]; expected 125 ng/ml): 88 ng/mL
- observed −20° C. ([2]; expected 125 ng/ml): 110 ng/mL
- % difference (4° C. from −20° C.) ([2]; expected 250 ng/ml, 48 hrs): −12%
- observed 4° C. ([2]; expected 250 ng/ml): 211 ng/mL
- observed 37° C. ([2]; expected 250 ng/ml): >off scale
- observed −20° C. ([2]; expected 250 ng/ml): 240 ng/mL
- storage stability of spiked samples ([2]; serum pools spiked with CLF, 48 hrs, 4° C. vs 37° C. (reference −20° C.)): can be stored for 48 hrs at 4 °C but should avoid higher temperatures
